{
  "source": "paper PMC10150354",
  "about": "“Linearization of the Brevicidine and Laterocidine Lipopeptides Yields Analogues That Retain Full Antibacterial Activity” (Journal of Medicinal Chemistry, 2023)",
  "key": {"K. pneumoniae ATCC 13883": {"tested_on": "K. pneumoniae ATCC 13883", "assay_type": "cell-based, Klebsiella pneumoniae", "details": "microbroth dilution per CLSI, MHB, 18 h at 37 °C, visual inspection, three technical replicates", "method": "(§1) Linear laterocidine (LL-OH, 4) and linear brevicidine (LB-OH, 5) were first synthesized by Fmoc SPPS, starting from 2-chlorotrityl (2-CT) chloride resin. The antibacterial activity of these peptides was then compared to brevicidine (1) and laterocidine (2) using minimum inhibitory concentration (MIC)/microbroth dilution assays (Table 1). The MICs of all peptides were determined against a panel of Gram-negative and Gram-positive ESKAPE pathogens. Additionally, a strain of E. coli carrying the mcr-1 gene was included in the panel. The mcr-1 gene is a transferrable plasmid that confers resistance against colistin, a last-resort antibiotic for Gram-negative infections, by reducing the overall negative charge of lipopolysaccharide (LPS) through modification of lipid A with phosphoethanolamine. The propensity for cationic antibiotics to bind to the cell membrane is therefore reduced. This gene has been observed in more than 27 bacterial species over six continents.[26] The spread of the mcr-1 gene could render colistin ineffectual; therefore, novel antibacterials are urgently required to overcome this form of resistance.\n(§2) All minimum inhibitory concentrations (MICs) were determined according to Clinical and Laboratory Standards Institute (CLSI) guidelines. Blood agar plates were inoculated with glycerol stocks of E. coli ATCC 25922, K. pneumoniae ATCC 13883, A. baumannii ATCC 17961, P. aeruginosa PAO1, and S. aureus USA300. The inoculated agar plates were then incubated for 16 h at 37 °C. Individually grown colonies were subsequently used to inoculate 5 mL aliquots of TSB that were then incubated at 37 °C with shaking at 220 rpm. E. coli 25922 MCR-1 glycerol stock was used to inoculate 5 mL of TSB supplemented with kanamycin that was then incubated for 16 h at 37 °C with shaking at 220 rpm. The next day the culture was diluted 100-fold in TSB supplemented with kanamycin and incubated at 37 °C with shaking at 220 rpm. In parallel, the lipopeptide antibiotics DMSO stocks to be assessed were serially diluted with MHB in polypropylene 96-well plates (50 μL in each well). Colistin sulfate stocks were dissolved in water before being diluted with MHB. Aliquots of the inoculated TSB were incubated until an OD600 of around 0.5 was reached. The bacterial suspensions were then diluted with MHB (2 × 10^5 CFU/mL) and added to the microplates containing the test compounds (50 μL to each well). The well plates were sealed with an adhesive membrane and after 18 h of incubation at 37 °C with shaking at 600 rpm, the wells were visually inspected for bacterial growth. MIC values reported are based on three technical replicates and defined as the lowest concentration of the compound that prevented visible growth of bacteria."}, "A. baumannii ATCC 17961": {"tested_on": "A. baumannii ATCC 17961", "assay_type": "cell-based, Acinetobacter baumannii", "details": "microbroth dilution per CLSI, MHB, 18 h at 37 °C, visual inspection, three technical replicates", "method": "as §1, §2"}, "E. coli (MCR-1)": {"tested_on": "E. coli (MCR-1)", "assay_type": "cell-based, Escherichia coli", "details": "microbroth dilution per CLSI, MHB, 18 h at 37 °C, visual inspection, three technical replicates, E. coli 25922 carrying mcr-1", "method": "as §1, §2"}, "E. coli ATCC 25922": {"tested_on": "E. coli ATCC 25922", "assay_type": "cell-based, Escherichia coli", "details": "for Antibacterial activity (MIC) E. coli ATCC 25922: microbroth dilution per CLSI, MHB, 18 h at 37 °C, visual inspection, three technical replicates; for MIC (µg/mL) against E. coli (ATCC 25922): (Supplement 2)", "method": "as §1, §2"}, "P. aeruginosa PAO1": {"tested_on": "P. aeruginosa PAO1", "assay_type": "cell-based, Pseudomonas aeruginosa", "details": "microbroth dilution per CLSI, MHB, 18 h at 37 °C, visual inspection, three technical replicates", "method": "as §1, §2"}, "S. aureus USA300": {"tested_on": "S. aureus USA300", "assay_type": "cell-based, Staphylococcus aureus", "details": "microbroth dilution per CLSI, MHB, 18 h at 37 °C, visual inspection, three technical replicates", "method": "as §1, §2"}},
  "note": "Where a SMILES comes first, the peptide text is derived from it. [ ]: non-standard residue; d: D form. The star is where a group is joined. Octanoyl(7-Me) = CC(C)CCCCCC(=O)*; dOrn = NCCC[C@@H](N)C(=O)O; Orn = NCCC[C@H](N)C(=O)O; OAll = C=CCO*",
  "data": [
    {"smiles": "CC[C@H](C)[C@H](NC(=O)[C@@H](NC(=O)[C@H](Cc1c[nH]c2ccccc12)NC(=O)[C@@H](CCCN)NC(=O)CNC(=O)[C@H](CCCN)NC(=O)[C@@H](CCCN)NC(=O)[C@@H](Cc1c[nH]c2ccccc12)NC(=O)[C@@H](Cc1ccc(O)cc1)NC(=O)[C@@H](CO)NC(=O)CCCCCC(C)C)[C@@H](C)O)C(N)=O", "note": "[Δ11–13LL-NH2 (12)] ({Octanoyl(7-Me)}-[dS][dY][dW][dOrn][Orn]G[dOrn]WTI-NH2)", "values": [
      {"measurement": "Antibacterial activity (MIC) K. pneumoniae ATCC 13883", "setting": "K. pneumoniae ATCC 13883", "result": 2, "unit": "µg/mL"},
      {"measurement": "Antibacterial activity (MIC) A. baumannii ATCC 17961", "setting": "A. baumannii ATCC 17961", "result": 4, "unit": "µg/mL"},
      {"measurement": "Antibacterial activity (MIC) E. coli (MCR-1)", "setting": "E. coli (MCR-1)", "result": 4, "unit": "µg/mL"},
      {"measurement": "Antibacterial activity (MIC) E. coli ATCC 25922", "setting": "E. coli ATCC 25922", "result": 4, "unit": "µg/mL"},
      {"measurement": "Antibacterial activity (MIC) P. aeruginosa PAO1", "setting": "P. aeruginosa PAO1", "result": 4, "unit": "µg/mL"},
      {"measurement": "Antibacterial activity (MIC) S. aureus USA300", "setting": "S. aureus USA300", "result": 32, "unit": "µg/mL"}
    ]},
    {"smiles": "CC[C@H](C)[C@H](NC(=O)[C@H](CCSC)NC(=O)[C@H](Cc1c[nH]c2ccccc12)NC(=O)[C@@H](CCCN)NC(=O)CNC(=O)[C@H](CCCN)NC(=O)[C@@H](CCCN)NC(=O)[C@@H](Cc1c[nH]c2ccccc12)NC(=O)[C@@H](Cc1ccc(O)cc1)NC(=O)[C@@H](CO)NC(=O)CCCCCC(C)C)C(=O)N[C@@H](CC(N)=O)C(=O)NCC(=O)NCC(N)=O", "note": "[LL(Met9)-NH2 (44)] ({Octanoyl(7-Me)}-[dS][dY][dW][dOrn][Orn]G[dOrn]WMINGG-NH2)", "values": [
      {"measurement": "Antibacterial activity (MIC) K. pneumoniae ATCC 13883", "setting": "K. pneumoniae ATCC 13883", "result": 4, "unit": "µg/mL"},
      {"measurement": "Antibacterial activity (MIC) A. baumannii ATCC 17961", "setting": "A. baumannii ATCC 17961", "result": 4, "unit": "µg/mL"},
      {"measurement": "Antibacterial activity (MIC) E. coli (MCR-1)", "setting": "E. coli (MCR-1)", "result": 4, "unit": "µg/mL"},
      {"measurement": "MIC (µg/mL) against E. coli (ATCC 25922)", "setting": "E. coli ATCC 25922", "result": 4, "unit": "µg/mL"},
      {"measurement": "Antibacterial activity (MIC) E. coli ATCC 25922", "setting": "E. coli ATCC 25922", "result": 4, "unit": "µg/mL"},
      {"measurement": "Antibacterial activity (MIC) P. aeruginosa PAO1", "setting": "P. aeruginosa PAO1", "result": 4, "unit": "µg/mL"},
      {"measurement": "Antibacterial activity (MIC) S. aureus USA300", "setting": "S. aureus USA300", "result": ">32", "unit": "µg/mL"}
    ]},
    {"smiles": "CC[C@H](C)[C@H](NC(=O)[C@H](CO)NC(=O)[C@H](Cc1c[nH]c2ccccc12)NC(=O)[C@@H](CCCN)NC(=O)CNC(=O)[C@H](CCCN)NC(=O)[C@@H](CCCN)NC(=O)[C@@H](Cc1c[nH]c2ccccc12)NC(=O)[C@@H](Cc1ccc(O)cc1)NC(=O)[C@@H](CO)NC(=O)CCCCCC(C)C)C(=O)N[C@@H](CC(N)=O)C(=O)NCC(=O)NCC(N)=O", "note": "[LL(Ser9)-NH2 (46)] ({Octanoyl(7-Me)}-[dS][dY][dW][dOrn][Orn]G[dOrn]WSINGG-NH2)", "values": [
      {"measurement": "Antibacterial activity (MIC) K. pneumoniae ATCC 13883", "setting": "K. pneumoniae ATCC 13883", "result": 4, "unit": "µg/mL"},
      {"measurement": "Antibacterial activity (MIC) A. baumannii ATCC 17961", "setting": "A. baumannii ATCC 17961", "result": 8, "unit": "µg/mL"},
      {"measurement": "Antibacterial activity (MIC) E. coli (MCR-1)", "setting": "E. coli (MCR-1)", "result": 8, "unit": "µg/mL"},
      {"measurement": "MIC (µg/mL) against E. coli (ATCC 25922)", "setting": "E. coli ATCC 25922", "result": 4, "unit": "µg/mL"},
      {"measurement": "Antibacterial activity (MIC) E. coli ATCC 25922", "setting": "E. coli ATCC 25922", "result": 4, "unit": "µg/mL"},
      {"measurement": "Antibacterial activity (MIC) P. aeruginosa PAO1", "setting": "P. aeruginosa PAO1", "result": 4, "unit": "µg/mL"},
      {"measurement": "Antibacterial activity (MIC) S. aureus USA300", "setting": "S. aureus USA300", "result": ">32", "unit": "µg/mL"}
    ]},
    {"smiles": "CC(C)CCCCCC(=O)N[C@H](CO)C(=O)N[C@H](Cc1ccc(O)cc1)C(=O)N[C@H](Cc1c[nH]c2ccccc12)C(=O)N[C@H](CCCN)C(=O)N[C@@H](CCCN)C(=O)NCC(=O)N[C@H](CCCN)C(=O)N[C@@H](Cc1c[nH]c2ccccc12)C(=O)N[C@H](C(=O)N[C@@H](C)C(=O)N[C@@H](CC(N)=O)C(=O)NCC(=O)NCC(N)=O)[C@@H](C)O", "note": "[LL(Ala10)-NH2 (38)] ({Octanoyl(7-Me)}-[dS][dY][dW][dOrn][Orn]G[dOrn]WTANGG-NH2)", "values": [
      {"measurement": "Antibacterial activity (MIC) K. pneumoniae ATCC 13883", "setting": "K. pneumoniae ATCC 13883", "result": ">32", "unit": "µg/mL"},
      {"measurement": "Antibacterial activity (MIC) A. baumannii ATCC 17961", "setting": "A. baumannii ATCC 17961", "result": ">32", "unit": "µg/mL"},
      {"measurement": "Antibacterial activity (MIC) E. coli (MCR-1)", "setting": "E. coli (MCR-1)", "result": ">32", "unit": "µg/mL"},
      {"measurement": "Antibacterial activity (MIC) E. coli ATCC 25922", "setting": "E. coli ATCC 25922", "result": ">32", "unit": "µg/mL"},
      {"measurement": "Antibacterial activity (MIC) P. aeruginosa PAO1", "setting": "P. aeruginosa PAO1", "result": 16, "unit": "µg/mL"},
      {"measurement": "Antibacterial activity (MIC) S. aureus USA300", "setting": "S. aureus USA300", "result": ">32", "unit": "µg/mL"}
    ]},
    {"smiles": "C=CCOC(=O)CC[C@H](NC(=O)[C@H](Cc1c[nH]c2ccccc12)NC(=O)[C@@H](CCCN)NC(=O)CNC(=O)[C@H](CCCN)NC(=O)[C@@H](CCCN)NC(=O)[C@@H](Cc1c[nH]c2ccccc12)NC(=O)[C@@H](Cc1ccc(O)cc1)NC(=O)[C@@H](CO)NC(=O)CCCCCC(C)C)C(=O)N[C@H](C(=O)N[C@@H](CC(N)=O)C(=O)NCC(=O)NCC(N)=O)[C@@H](C)CC", "note": "[LL(Glu[OAll]9)-NH2 (51)] ({Octanoyl(7-Me)}-[dS][dY][dW][dOrn][Orn]G[dOrn]WE(OAll)INGG-NH2)", "values": [
      {"measurement": "Antibacterial activity (MIC) K. pneumoniae ATCC 13883", "setting": "K. pneumoniae ATCC 13883", "result": ">32", "unit": "µg/mL"},
      {"measurement": "Antibacterial activity (MIC) A. baumannii ATCC 17961", "setting": "A. baumannii ATCC 17961", "result": 16, "unit": "µg/mL"},
      {"measurement": "Antibacterial activity (MIC) E. coli (MCR-1)", "setting": "E. coli (MCR-1)", "result": 16, "unit": "µg/mL"},
      {"measurement": "MIC (µg/mL) against E. coli (ATCC 25922)", "setting": "E. coli ATCC 25922", "result": 16, "unit": "µg/mL"},
      {"measurement": "Antibacterial activity (MIC) E. coli ATCC 25922", "setting": "E. coli ATCC 25922", "result": 16, "unit": "µg/mL"},
      {"measurement": "Antibacterial activity (MIC) P. aeruginosa PAO1", "setting": "P. aeruginosa PAO1", "result": ">32", "unit": "µg/mL"},
      {"measurement": "Antibacterial activity (MIC) S. aureus USA300", "setting": "S. aureus USA300", "result": ">32", "unit": "µg/mL"}
    ]}
  ]
}
